Values after ≈ are worked out from the molar mass of the structure shown. Active and inactive are the calls of the source. The calls are words filed in the database; no cut-off is given here.
Key:
L1210 = assay: In vivo cytotoxicity against mouse L1210 cells at 300 to 400 mg/kg relative to control; assay type: functional, organism-based
KB = assay: Cytotoxicity against human KB cells; assay type: functional; settings: read-out: ED50 (the source's name)
P388 = assay: Cytotoxicity against mouse P388 cells; assay type: functional; settings: read-out: ED50 (the source's name)

Compound | Activity (L1210) | EC50 (KB) | EC50 (P388)
Cc1cccc2c1C(=O)[C@H]1[C@H](CCN3CCC[C@H]13)O2 | inactive | – | –
CC(=O)[C@H]1[C@H](O)C[C@@]2(C)[C@@H]3CC=C4[C@@H](C[C@H](O)[C@@H](O)C4(C)C)[C@]3(C)C(=O)C[C@]12C [HEXANORCUCURBITACIN F] | – | > 50 µg/mL | > 50 µg/mL
Cc1cccc2c1C(=O)C1[C@H]3CCCN3CC[C@H]1O2 (some centres undefined) | inactive | – | –
CC(C)(O)CCC(=O)[C@](C)(O)[C@H]1[C@H](O)C[C@@]2(C)[C@@H]3CC=C4[C@@H](C[C@H](O)[C@@H](O)C4(C)C)[C@]3(C)C(=O)C[C@]12C | – | > 50 µg/mL | > 50 µg/mL
CC(C)(O)/C=C/C(=O)[C@](C)(O)[C@H]1[C@H](O)C[C@@]2(C)[C@@H]3CC=C4[C@@H](C[C@H](O)[C@@H](O)C4(C)C)[C@]3(C)C(=O)C[C@]12C [CUCURBITACIN F] | – | 0.074 µg/mL (≈ 0.143 µM) | 0.04 µg/mL (≈ 0.0771 µM)
C[C@@H]1CC=CC2=C1C(=O)[C@H]1[C@H](CCN3CCC[C@H]13)O2 | inactive | – | –

From ChEMBL document CHEMBL1151631, “Plant anticancer agents, XXXIV. Cucurbitacins from Elaeocarpus dolichostylus” (1984)
